Data on three compounds can be found in US10745405B2, “Glucuronide prodrugs of Janus kinase inhibitors” (THERAVANCE BIOPHARMA R&D IP, LLC, priority 2017, dated 2020).

SMILES strings stand for the structures.

The nature of data set [1]: Oral pharmacokinetics in mouse assay. Particulars: liberated JAK inhibitor in colon tissue, AUC0-6 h, single PO dose 5 mg/kg of prodrug, male Balb/c mice. It counts as in vivo. The procedure: When cleaved by β-glucuronidase enzyme, the compounds of the present invention release a JAK inhibitor (e.g., ruxolitinib, baricitinib or oclacitinib). The object of this assay was to determine JAK inhibitor exposure (AUC0-6 h) in colon tissue and plasma following oral dosing of compounds of the present invention in mice. Male Balb/c mice (n=2/time point) received a single PO oral gavage dose (5 mg/kg in 1:20 mixture of 5% DMSO and 1% HPMC) of the test compound. At 0.5, 2, 6 and 24 h post-dosing, mice were sacrificed via cardiac puncture exsanguination and blood samples were taken and placed into sample tubes (Microtainer, Becton, Dickinson and Company) containing sodium fluoride and then placed on ice. Plasma was obtained by centrifugation (Eppendorf centrifuge, 5804R) for 4 min at approximately 12,000 rpm at 4° C. The colons were removed from the exsanguinated mice and the colon fecal contents were gently removed. The colons were flushed with saline and patted dry. The colons were then homogenized in 3× volume of sterile water using a tissue homogenizer (Precellys homogenizer, Bertin Instruments) at approximately 4° C. All samples were stored at −80° C. for later bioanalysis. The concentration of JAK inhibitor (e.g., ruxolitinib, baricitinib or oclacitinib) in each sample was determined as follows: the plasma and colon homogenate samples were vortexed, combined with a 50 μL aliquot of rat plasma, extracted with 200 μL of ACN containing an internal standard and quantified against the internal standard by LC-MS. An area-under-the-concentration curve (AUC0-6 h) was calculated for plasma and colon test compound and liberated JAK inhibitor. A key parameter to assess suitability for localized delivery of the JAK inhibitor to the colon was the JAK inhibitor colon to plasma AUC ratio.

Data set [2] relates to β-glucuronidase in rat colon feces. As to the kind of experiment: Rat colon fecal homogenate stability assay. It counts as in vitro ADME. As to conditions: male, Sprague Dawley, rat colon fecal supernatant-homogenate; in vitro half-life of the prodrug in rat fecal supernatant-homogenate, anaerobic, 10 μM substrate; read-out: T½. The source says:
The compounds of the present invention contain a glucuronide prodrug moiety that is expected to be cleaved by β-glucuronidase enzyme to release a JAK inhibitor (e.g., ruxolitinib, baricitinib or oclacitinib). The objective of this assay was to determine the half-life for compounds of the present invention in the presence of β-glucuronidase in rat colon feces. Following sacrifice of a naïve male Sprague Dawley rat (˜300 g) by cardiac puncture exsanguination, the colon was ligated and removed to an anaerobic chamber (AS-580, Anaerobe Systems). The fecal content was removed within the chamber and was diluted 1:10 with phosphate buffer (1 gram fecal content to 9 mL phosphate buffer) and the resulting mixture was homogenized using a handheld Omni Tissue Master. The fecal homogenate was centrifuged at 2000 g for 10 min to remove bulk material and the supernatant was removed and used for the incubations. DMSO stock solutions (10 mM) of the test compounds and sulfasalazine (control) were prepared. Sulfasalazine was used as a positive control to confirm viability of the fecal supernatant-homogenate (see, e.g., Azad Khan et al., Clinical Science (1983) 64, 349-354). If the in vitro half-life (T½) for sulfasalazine in the fecal sample was less than 30 min, the fecal sample was deemed to be viable and in true anaerobic conditions. However, if the T½ for sulfasalazine was greater than 30 min, the fecal sample was typically contaminated with oxygen and was not viable. The final substrate concentration of each assay was 10 μM. Reactions were started by adding a 5 μL aliquot of diluted test compound stock solution into 300 μL of rat fecal supernatant-homogenate. At 0, 15, 50, 85 and 120 min post reaction initiation, a 50 μL aliquot was removed and added to a mixture of 200 μL of acetonitrile with 3% formic acid and an internal standard. All samples were centrifuged at 2000 g for 10 min after which 50 μL of supernatant was diluted into 150 μL of water for analysis on an LC-MS system. In vitro half-lives (T½) for the test compounds were calculated as follows: T½=0.693/elimination rate constant.

As for `CCS(=O)(=O)N1CC(CC#N)(n2cc(-c3ncnc4c3ccn4C(=O)N(C)CCN(C)C(=O)OCc3ccc(O[C@@H]4O[C@H](C(=O)O)[C@@H](O)[C@H](O)[C@H]4O)c([N+](=O)[O-])c3)cn2)C1` [Compound VII-2, (2S,3S,4S,5R,6S)-6-(4-((((2-(4-(1-(3-(Cyanomethyl)-1-(ethylsulfonyl)azetidin-3-yl)-1H-pyrazol-4-yl)-N-methyl-7H-pyrrolo[2,3-d]pyrimidine-7-carboxamido)ethyl)-(methyl)carbamoyl)oxy)methyl)-2-nitrophenoxy)-3,4,5-trihydroxytetrahydro-2H-pyran-2-carboxylic Acid], the “Colon AUC” value in data set [1] was 17.3 µg·h/g. Moreover, in data set [2], the half-life at 10 μM was below 5 min.

Take `CN(CCN(C)C(=O)n1ccc2c(-c3cnn([C@H](CC#N)C4CCCC4)c3)ncnc21)C(=O)OCc1ccc(O[C@@H]2O[C@H](C(=O)O)[C@@H](O)[C@H](O)[C@H]2O)c([N+](=O)[O-])c1` [Compound VII-1, (2S,3S,4S,5R,6S)-6-(4-((((2-(4-(1-((R)-2-Cyano-1-cyclopentylethyl)-1H-pyrazol-4-yl)-N-methyl-7H-pyrrolo[2,3-d]pyrimidine-7-carboxamido)ethyl)-(methyl)carbamoyl)oxy)methyl)-2-nitrophenoxy)-3,4,5-trihydroxytetrahydro-2H-pyran-2-carboxylic Acid]: the “Colon AUC” value in data set [1] is 7.4 µg·h/g. Also, the half-life at 10 μM in data set [2] is below 5 min.

`CNS(=O)(=O)C[C@H]1CC[C@H](N(C)c2ncnc3c2ccn3C(=O)N(C)CCN(C)C(=O)OCc2ccc(O[C@@H]3O[C@H](C(=O)O)[C@@H](O)[C@H](O)[C@H]3O)c([N+](=O)[O-])c2)CC1` [Compound VII-3, (2S,3S,4S,5R,6S)-3,4,5-Trihydroxy-6-(4-(((methyl(2-(N-methyl-4-(methyl((1r,4r)-4-((N-methylsulfamoyl)methyl)cyclohexyl)amino)-7H-pyrrolo[2,3-d]pyrimidine-7-carboxamido)ethyl)carbamoyl)oxy)methyl)-2-nitrophenoxy)tetrahydro-2H-pyran-2-carboxylic Acid]: in data set [1], the “Colon AUC” value came to 13.5 µg·h/g. Besides, in data set [2], the half-life at 10 μM is below 5 min.
